Laboratory results from patent US11369599B2, “Melt-extruded solid dispersions containing an apoptosis-inducing agent” (AbbVie Inc., priority 2014, dated 2022).
Like-named read-outs stand apart in the source and are kept apart here. Values belong to the compound of their own block, whether it stands above or below them.

What was measured:
Bcl-2 protein = Bcl-2 protein (Homo sapiens (Human), UniProt P10415); experiment: TR-FRET (Time-Resolved Fluorescence-Resonance-Energy-Transfer) Bcl-2 binding assay
Text: The smaller the Ki value, the greater is the binding affinity.

[1] = log D at pH 7.4 by an HPLC method; format: physicochemical
[2] = First-in-human Phase 1 study (safety, PK) in relapsed or refractory CLL; format: in vivo; details: for AUC(0-inf): read-out: AUC (AUCINF)
Experimental: Three subjects were enrolled in the first cohort of CLL arm.
Subject 1: bulky disease, initial dose=200 mg
Subject 2: non-bulky disease, initial dose=200 mg
Subject 3: bulky disease, initial dose=100 mg
The dosing scheme for CLL arm was as follows: single dose on Week 1 Day −3; QD dose started on Week 1 Day 1. PK sampling was done on Week 1 Day −3 and Week 3 Day 1.

[3] = human CLL, Week 1 Day-3 single dose, Mean of 3 subjects
[4] = human CLL, Week 1 Day-3 single dose, Subject 1, 200 mg
[5] = human CLL, Week 1 Day-3 single dose, Subject 2, 200 mg
[6] = human CLL, Week 1 Day-3 single dose, Subject 3, 100 mg
[7] = human CLL, Week 3 Day 1, QD dosing, ID 101, 150 mg
[8] = human, plasma, oral, 100 mg, human CLL, Week 1 Day-3 single dose, Subject 3, 100 mg
[9] = human, plasma, oral, 200 mg, human CLL, Week 1 Day-3 single dose, Subject 1, 200 mg
[10] = human, plasma, oral, 200 mg, human CLL, Week 1 Day-3 single dose, Subject 2, 200 mg

Chain of Bcl-2 protein (P10415 whole entry): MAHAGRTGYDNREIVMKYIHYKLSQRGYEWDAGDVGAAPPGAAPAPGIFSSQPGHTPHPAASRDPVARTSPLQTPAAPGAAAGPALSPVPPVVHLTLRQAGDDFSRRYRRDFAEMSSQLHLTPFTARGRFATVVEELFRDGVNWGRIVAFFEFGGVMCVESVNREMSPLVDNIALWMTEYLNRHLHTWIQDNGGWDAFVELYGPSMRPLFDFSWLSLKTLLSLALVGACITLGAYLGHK

SMILES: CC1(C)CCC(CN2CCN(c3ccc(C(=O)NS(=O)(=O)c4ccc(OCC5CCC(C)(O)CC5)c(Cl)c4)c(Oc4cnc5[nH]ccc5c4)c3)CC2)=C(c2ccc(Cl)cc2)C1 (stereo not drawn) [Compound 362, N-({3-chloro-4-[(trans-4-hydroxy-4-methylcyclohexyl)methoxy]phenyl}sulfonyl)-4-(4-{[2-(4-chlorophenyl)-4,4-dimethylcyclohex-1-en-1-yl]methyl}piperazin-1-yl)-2-(1H-pyrrolo[2,3-b]pyridin-5-yloxy)benzamide]
Ki (Bcl-2 protein): 0.016 nM

SMILES: CC1(C)CCC(CN2CCN(c3ccc(C(=O)NS(=O)(=O)c4cnc(OCC5(F)CCC(O)CC5)c(Cl)c4)c(Oc4cnc5[nH]ccc5c4)c3)CC2)=C(c2ccc(Cl)cc2)C1 (stereo not drawn) [Compound 350, N-({5-chloro-6-[(cis-1-fluoro-4-hydroxycyclohexyl)methoxy]pyridin-3-yl}sulfonyl)-4-(4-{[2-(4-chlorophenyl)-4,4-dimethylcyclohex-1-en-1-yl]methyl}piperazin-1-yl)-2-(1H-pyrrolo[2,3-b]pyridin-5-yloxy)benzamide]
Ki (Bcl-2 protein): < 0.01 nM

SMILES: CC1(C)CCC(CN2CCN(c3ccc(C(=O)NS(=O)(=O)c4cnc(NCC5CCC(C)(O)CC5)c([N+](=O)[O-])c4)c(Oc4cnc5[nH]ccc5c4)c3)CC2)=C(c2ccc(Cl)cc2)C1 (stereo not drawn) [Compound 371, 4-(4-{[2-(4-chlorophenyl)-4,4-dimethylcyclohex-1-en-1-yl]methyl}piperazin-1-yl)-N-[(6-{[(trans-4-hydroxy-4-methylcyclohexyl)methyl]amino}-5-nitropyridin-3-yl)sulfonyl]-2-(1H-pyrrolo[2,3-b]pyridin-5-yloxy)benzamide]
Ki (Bcl-2 protein): < 0.001 nM

log D [1]: 5.67
SMILES: CC1(C)CCC(CN2CCN(c3ccc(C(=O)NS(=O)(=O)c4ccc(NCC5CCC(C)(O)CC5)c([N+](=O)[O-])c4)c(Oc4cnc5[nH]ccc5c4)c3)CC2)=C(c2ccc(Cl)cc2)C1 (stereo not drawn) [Compound 338, 4-(4-{[2-(4-chlorophenyl)-4,4-dimethylcyclohex-1-en-1-yl]methyl}piperazin-1-yl)-N-[(4-{[(cis-4-hydroxy-4-methylcyclohexyl)methyl]amino}-3-nitrophenyl)sulfonyl]-2-(1H-pyrrolo[2,3-b]pyridin-5-yloxy)benzamide]

log D [1]: 5.48
SMILES: CC1(C)CCC(CN2CCN(c3ccc(C(=O)NS(=O)(=O)c4ccc(NCC5CCC(C)(O)CC5)c([N+](=O)[O-])c4)c(Oc4cnc5[nH]ccc5c4)c3)CC2)=C(c2ccc(Cl)cc2)C1 (stereo not drawn) [Compound 337, 4-(4-{[2-(4-chlorophenyl)-4,4-dimethylcyclohex-1-en-1-yl]methyl}piperazin-1-yl)-N-[(4-{[(trans-4-hydroxy-4-methylcyclohexyl)methyl]amino}-3-nitrophenyl)sulfonyl]-2-(1H-pyrrolo[2,3-b]pyridin-5-yloxy)benzamide]

SMILES: CC1(C)CCC(CN2CCN(c3ccc(C(=O)NS(=O)(=O)c4ccc(NCC5CCOCC5)c([N+](=O)[O-])c4)c(Oc4cnc5[nH]ccc5c4)c3)CC2)=C(c2ccc(Cl)cc2)C1 [Compound 5, 4-(4-{[2-(4-chlorophenyl)-4,4-dimethylcyclohex-1-en-1-yl]methyl}piperazin-1-yl)-N-({3-nitro-4-[(tetrahydro-2H-pyran-4-ylmethyl)amino]phenyl}sulfonyl)-2-(1H-pyrrolo[2,3-b]pyridin-5-yloxy)benzamide]
CL/F [2, 3]: 4.7 L/h
Cmax/Dose [2, 3]: 0.008 (μg/mL)/mg
CL/F [2, 4]: 8.6 L/h
Cmax/Dose [2, 4]: 0.0037 (μg/mL)/mg
Tmax ([2]; human CLL, Week 1 Day-3 single dose, Subject 1, 200 mg, 50 mg tablets): 6 h
CL/F [2, 5]: 2.6 L/h
Cmax/Dose [2, 5]: 0.0079 (μg/mL)/mg
CL/F [2, 6]: 2.8 L/h
Cmax/Dose [2, 6]: 0.0119 (μg/mL)/mg
CL/F [2, 7]: 7.1 L/h
Cmax/Dose [2, 7]: 0.0089 (μg/mL)/mg
Tmax [2, 7]: 8 h
time to reach Cmax ([2]; human subjects): around 7 hours
predicted AUC ([2]; human, 200 mg dose, predicted): 30000 ng·h/mL
observed AUC versus predicted AUC ([2]; human, normalized to 200 mg dose): about 2 fold
Cmax [2, 8]: 1190 ng/mL
AUC(0-inf) [2, 8]: 36300 ng·h/mL
half-life ([2]; human, plasma, oral, 100 mg, human CLL, Week 1 Day-3 single dose, Subject 3, 100 mg, read-out: t1/2 (converted)): 22.1 h
Cmax ([2]; human, plasma, oral, 150 mg, human CLL, Week 3 Day 1, QD dosing, ID 101, 150 mg): 1340 ng/mL
AUC ([2]; human, plasma, oral, 150 mg, read-out: AUC (AUCss,24)): 21100 ng·h/mL
Cmax [2, 9]: 730 ng/mL
AUC(0-inf) [2, 9]: 23300 ng·h/mL
half-life ([2]; human, plasma, oral, 200 mg, human CLL, Week 1 Day-3 single dose, Subject 1, 200 mg, read-out: t1/2 (converted)): 30.6 h
Cmax [2, 10]: 1570 ng/mL
AUC(0-inf) [2, 10]: 76000 ng·h/mL
half-life ([2]; human, plasma, oral, 200 mg, human CLL, Week 1 Day-3 single dose, Subject 2, 200 mg, read-out: t1/2 (converted)): 50.9 h
half-life ([2]; human, plasma, oral, human CLL, Week 1 Day-3 single dose, Harmonic Mean of 3 subjects, read-out: t1/2 (converted)): 30.7 h
half-life ([2]; human, plasma, oral, human subjects, observed, read-out: terminal elimination half-life (converted)): 31 h
clearance, predicted value ([2]; human, predicted): 10 L/h
terminal elimination half-life, predicted value ([2]; human, predicted): 15 h
Tmax ([2]; plasma, oral, human CLL, Week 1 Day-3 single dose, Mean of 3 subjects, read-out: Tmax): 7.3 h
clearance ([2]; plasma, oral, human subjects, observed): 78.3 mL/min
adverse event after the first dose ([2]; three CLL subjects, first cohort, initial dose 100-200 mg, 50 mg tablet form, all subjects): tumor lysis syndrome

SMILES: CC1(O)CCC(COc2ncc(S(=O)(=O)NC(=O)c3ccc(N4CCN(CC5=C(c6ccc(Cl)cc6)CC6(CC5)CC6)CC4)cc3Oc3cnc4[nH]ccc4c3)cc2Cl)CC1 (stereo not drawn) [Compound 341, N-({5-chloro-6-[(trans-4-hydroxy-4-methylcyclohexyl)methoxy]pyridin-3-yl}sulfonyl)-4-(4-{[5-(4-chlorophenyl)spiro[2.5]oct-5-en-6-yl]methyl}piperazin-1-yl)-2-(1H-pyrrolo[2,3-b]pyridin-5-yloxy)benzamide]
Ki (Bcl-2 protein): < 0.01 nM

Ki (Bcl-2 protein): 0.19 nM
SMILES: COCCON1C=C(Cl)C=C(S(=O)(=O)NC(=O)c2ccc(N3CCN(CC4=C(c5ccc(Cl)cc5)CC(C)(C)CC4)CC3)cc2Oc2cnc3[nH]ccc3c2)C1 [Compound 292, N-{[5-chloro-1-(2-methoxyethoxy)pyridin-3-yl]sulfonyl}-4-(4-{[2-(4-chlorophenyl)-4,4-dimethylcyclohex-1-en-1-yl]methyl}piperazin-1-yl)-2-(1H-pyrrolo[2,3-b]pyridin-5-yloxy)benzamide]

SMILES: CC1(C)CCC(CN2CCN(c3ccc(C(=O)NS(=O)(=O)c4cnc(NCC5CCC(C)(O)CC5)c([N+](=O)[O-])c4)c(Oc4cnc5[nH]ccc5c4)c3)CC2)=C(c2ccc(Cl)cc2)C1 (stereo not drawn) [Compound 376, 4-(4-{[2-(4-chlorophenyl)-4,4-dimethylcyclohex-1-en-1-yl]methyl}piperazin-1-yl)-N-[(6-{[(cis-4-hydroxy-4-methylcyclohexyl)methyl]amino}-5-nitropyridin-3-yl)sulfonyl]-2-(1H-pyrrolo[2,3-b]pyridin-5-yloxy)benzamide]
Ki (Bcl-2 protein): < 0.001 nM

SMILES: COC1(C)CCC(c2ccc(Cl)cc2)=C(CN2CCN(c3ccc(C(=O)NS(=O)(=O)c4ccc(NCC5CCC(C)(O)CC5)c([N+](=O)[O-])c4)c(Oc4cnc5[nH]ccc5c4)c3)CC2)C1 (stereo not drawn) [Compound 377, 4-(4-{[2-(4-chlorophenyl)-5-methoxy-5-methylcyclohex-1-en-1-yl]methyl}piperazin-1-yl)-N-[(4-{[(trans-4-hydroxy-4-methylcyclohexyl)methyl]amino}-3-nitrophenyl)sulfonyl]-2-(1H-pyrrolo[2,3-b]pyridin-5-yloxy)benzamide]
Ki (Bcl-2 protein): < 0.001 nM
